From patent publication US20210087206A1, “MACROCYCLIC KINASE INHIBITORS AND THEIR USE” (TURNING POINT THERAPEUTICS, INC., priority 2017, published 2021)

What was measured:
Experiment in all cases: Cell proliferation assay (CellTiter-Glo)
Format in all cases: cell-based
BaF3 EML4-ALK = molecular target: T1, BaF3 EML4-ALK (Homo sapiens, UniProt Q9UM73); details: anti-cell proliferation, 72 hours
T1 construct: The EML4-ALK gene (variant 1) was synthesized at GenScript and cloned into pCDH-CMV-MCS-EF1-Puro plasmid (System Biosciences, Inc); fused on or other part: EML4 N-terminal part (variant 1: exons 1-13, with the coiled-coil that oligomerises the fusion) fused to the intracellular part of ALK, which contains the kinase domain; Q9HC35 (Echinoderm microtubule-associated protein-like 4)
T1 sequence (Q9UM73 whole entry, stated change not applied, the tested form may be a part): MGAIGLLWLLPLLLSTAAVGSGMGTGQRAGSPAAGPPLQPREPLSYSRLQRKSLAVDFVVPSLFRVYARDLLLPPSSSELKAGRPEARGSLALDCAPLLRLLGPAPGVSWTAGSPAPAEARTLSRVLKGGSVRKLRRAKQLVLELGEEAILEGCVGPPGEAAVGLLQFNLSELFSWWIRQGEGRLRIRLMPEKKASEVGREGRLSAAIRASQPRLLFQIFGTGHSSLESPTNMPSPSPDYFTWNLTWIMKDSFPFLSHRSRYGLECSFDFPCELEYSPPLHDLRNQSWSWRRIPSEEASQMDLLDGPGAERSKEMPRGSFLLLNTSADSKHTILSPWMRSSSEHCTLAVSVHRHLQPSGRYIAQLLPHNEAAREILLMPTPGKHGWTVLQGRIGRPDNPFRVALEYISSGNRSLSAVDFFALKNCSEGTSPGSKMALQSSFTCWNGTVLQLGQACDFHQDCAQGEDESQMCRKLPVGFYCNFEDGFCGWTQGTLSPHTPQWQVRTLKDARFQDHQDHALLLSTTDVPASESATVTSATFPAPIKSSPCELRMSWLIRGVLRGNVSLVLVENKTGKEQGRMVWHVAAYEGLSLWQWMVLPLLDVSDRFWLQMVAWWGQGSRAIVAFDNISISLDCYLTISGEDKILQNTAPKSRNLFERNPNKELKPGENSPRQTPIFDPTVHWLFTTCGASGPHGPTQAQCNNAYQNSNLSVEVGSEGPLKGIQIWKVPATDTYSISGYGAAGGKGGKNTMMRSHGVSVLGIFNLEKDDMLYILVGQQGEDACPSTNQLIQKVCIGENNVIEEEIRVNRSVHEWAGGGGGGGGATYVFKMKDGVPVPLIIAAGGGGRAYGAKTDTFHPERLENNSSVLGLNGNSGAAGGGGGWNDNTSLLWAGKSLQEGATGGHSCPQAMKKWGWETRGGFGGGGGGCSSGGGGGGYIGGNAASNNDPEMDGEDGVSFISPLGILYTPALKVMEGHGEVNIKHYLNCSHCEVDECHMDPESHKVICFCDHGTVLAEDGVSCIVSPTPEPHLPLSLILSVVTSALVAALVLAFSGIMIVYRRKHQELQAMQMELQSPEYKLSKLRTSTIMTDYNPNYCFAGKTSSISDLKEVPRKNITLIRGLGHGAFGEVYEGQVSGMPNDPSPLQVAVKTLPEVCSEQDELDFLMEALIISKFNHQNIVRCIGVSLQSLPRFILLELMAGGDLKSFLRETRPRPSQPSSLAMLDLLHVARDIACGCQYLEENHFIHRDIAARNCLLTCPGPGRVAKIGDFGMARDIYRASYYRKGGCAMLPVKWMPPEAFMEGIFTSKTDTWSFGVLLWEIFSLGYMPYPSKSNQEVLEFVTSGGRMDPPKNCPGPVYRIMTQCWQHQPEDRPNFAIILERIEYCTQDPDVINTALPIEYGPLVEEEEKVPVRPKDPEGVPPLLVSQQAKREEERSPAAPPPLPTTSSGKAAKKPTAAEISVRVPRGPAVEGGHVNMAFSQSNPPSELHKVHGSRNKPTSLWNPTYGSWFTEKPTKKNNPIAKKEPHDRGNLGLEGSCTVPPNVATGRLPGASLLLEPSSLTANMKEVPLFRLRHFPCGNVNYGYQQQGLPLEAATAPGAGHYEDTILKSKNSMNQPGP
Procedure: Cloning and Ba/F3 or NIH3T3 Stable Cell Line Creation
The EML4-ALK gene (variant 1) was synthesized at GenScript and cloned into pCDH-CMV-MCS-EF1-Puro plasmid (System Biosciences, Inc). Ba/F3-EML4-ALK wild type were generated by transducing Ba/F3 cells with lentivirus containing EML4-ALK wide type. Stable cell lines were selected by puromycin treatment, followed by IL-3 withdrawal. Briefly, 5×10^6 Ba/F3 cells were transduced with lentivirus supernatant in the presence of 8 μg/mL protamine sulfate. The transduced cells were subsequently selected with 1 μg/mL puromycin in the presence of IL3-containing medium RPMI1640, plus 10% FBS. After 10-12 days of selection, the surviving cells were further selected for IL3 independent growth.
(§1) Cell Proliferation Assays:
(§2) Two thousand cells per well were seeded in 384 well white plate for 24 hrs, and then treated with compounds for 72 hours (37° C., 5% CO2). Cell proliferation was measured using CellTiter-Glo luciferase-based ATP detection assay (Promega) following the manufactures's protocol. IC50 determinations were performed using GraphPad Prism software (GraphPad, Inc., San Diego, Calif.).

KG-1 cell (OP2-FGFR1) = details: Homo sapiens, anti-cell proliferation, 72 hours
Procedure: (§3) Cell Lines and Cell Culture:
(§4) Colorectal cell line KM 12 (harboring endogenous TPM3-TRKA fusion gene) was obtained from NCI. Acute myelogenous cell line KG-1 (harboring endogenous OP2-FGFR1 fusion gene) were purchased from ATCC.
as §1, §2

KM12 (TPM3-TRKA) = details: Homo sapiens, anti-cell proliferation, 72 hours
Procedure: as §3, §4, §1, §2

SMILES: C[C@@H]1CCOc2cn3ncc4c3nc2N1Cc1c(ccc(F)c1Cl)O[C@@H](C)CNC4=O [Compound 23, (5R,13S)-8-chloro-9-fluoro-5,13-dimethyl-4,5,14,15-tetrahydro-3H,7H-19,1-(metheno)[1,4]-oxazepino[3,4-i]pyrazolo[4,3-f] [1,4,8,10]benzoxatriazacyclo-tridecin-16(13H)-one]
- IC50 (BaF3 EML4-ALK): 1930 nM
- IC50 (KG-1 cell (OP2-FGFR1)): 9510 nM
- IC50 (KM12 (TPM3-TRKA)): < 0.2 nM

SMILES: C[C@@H]1COc2ncc(F)cc2CN2c3nc4c(cnn4cc3OCC23CCCC3)C(=O)N1 [Compound 59, (13′R)-8′-fluoro-13′-methyl-3′H,6′H,12′H,13′H,14′H,15′H-spiro[cyclopentane-1,4′-[2,11]-dioxa[5,10,14,17,18,19]hexaaza-[18,1](metheno)[1,4]oxazino-[3,4-i]pyrazolo[4,3-f]pyrido-[3,2-l][1,4,8,10]oxatriazacyclo-tridecin]-15′-one]
- IC50 (BaF3 EML4-ALK): 1020 nM
- IC50 (KG-1 cell (OP2-FGFR1)): 2000 nM
- IC50 (KM12 (TPM3-TRKA)): < 0.2 nM

SMILES: CC1CNC(=O)c2cnn3cc4c(nc23)N(Cc2cc(F)cnc2OC1)[C@H](C)CO4 (stereo partly drawn) [Compound 71, (16R)-12-fluoro-7,16-dimethyl-5,6,7,8,16,17-hexahydro-4H,14H-1,19-(metheno)[1,4]oxazino[4,3-e]pyrazolo[3,4-h]pyrido[2,3-b] [1,5,7,11]oxatriazacyclotetradecin-4-one]
- IC50 (BaF3 EML4-ALK): 19.9 nM
- IC50 (KG-1 cell (OP2-FGFR1)): 11.9 nM
- IC50 (KM12 (TPM3-TRKA)): < 0.2 nM

SMILES: CC[C@@H]1COc2cn3ncc4c3nc2N1Cc1cc(F)cnc1OCC1(CCC1)NC4=O [Compound 73, (4′R)-4′-ethyl-8′-fluoro-3′H,4′H,6′H,12′H,14′H,15′H-spiro[cyclobutane-1,13’-[2,11]-dioxa[5,10,14,17,18,19]hexaaza-[18,1](metheno)[1,4]oxazino[3,4-i]pyrazolo[4,3-f]pyrido[3,2-l] [1,4,8,10]oxatriazacyclotridecin]-15′-one]
- IC50 (BaF3 EML4-ALK): 93.1 nM
- IC50 (KG-1 cell (OP2-FGFR1)): 5 nM
- IC50 (KM12 (TPM3-TRKA)): < 0.2 nM

SMILES: C[C@@H]1COc2cn3ncc4c3nc2N1Cc1cc(F)cnc1OCC[C@H](C)NC4=O [Compound 48, (6S,16R)-12-fluoro-6,16-dimethyl-5,6,7,8,16,17-hexahydro-4H,14H-1,19-(metheno)[1,4]oxazino[4,3-e]pyrazolo[3,4-h]pyrido[2,3-b] [1,5,7,11]oxatriazacyclotetra-decin-4-one]
- IC50 (BaF3 EML4-ALK): 22.1 nM
- IC50 (KG-1 cell (OP2-FGFR1)): 12.9 nM
- IC50 (KM12 (TPM3-TRKA)): < 0.2 nM

SMILES: C[C@H]1CNC(=O)c2cnn3cc4c(nc23)N(Cc2cc(F)cnc2O1)C1(CCC1)CO4 [Compound 56, (12′S)-8′-fluoro-12′-methyl-3′H,6′H,12′H,13′H,14′H,15′H-spiro[cyclobutane-1,4′-[2,11]-dioxa[5,10,14,17,18,19]-hexaaza[18,1](metheno)[1,4]-oxazino[3,4-i]pyrazolo[4,3-f]-pyrido[3,2-l][1,4,8,10]oxatriaza-cyclotridecin]-15′-one]
- IC50 (BaF3 EML4-ALK): 919 nM
- IC50 (KG-1 cell (OP2-FGFR1)): 3000 nM
- IC50 (KM12 (TPM3-TRKA)): < 0.2 nM

SMILES: C[C@@H]1COc2cn3ncc4c3nc2N1Cc1cc(F)cnc1O[C@H](CO)CNC4=O [Compound 98, (4R,12S)-8-fluoro-12-(hydroxymethyl)-4-methyl-3,4,13,14-tetrahydro-6H-18,1-(metheno)[1,4]oxazino[3,4-i]pyrazolo[4,3-f]pyrido[3,2-1][1,4,8,10]oxatriazacyclotridecin-15(12H)-one]
- IC50 (BaF3 EML4-ALK): 4000 nM
- IC50 (KG-1 cell (OP2-FGFR1)): 3000 nM
- IC50 (KM12 (TPM3-TRKA)): 13.3 nM

SMILES: CC[C@@H]1COc2cn3ncc4c3nc2N1Cc1cc(F)ccc1O[C@@H](C)CNC4=O [Compound 6, (4R,12S)-4-ethyl-8-fluoro-12-methyl-3,4,13,14-tetrahydro-6H-18,1-(metheno)[1,4]oxazino[3,4-i]pyrazolo[4,3-f][1,4,8,10]benzo-xatriazacyclotridecin-15(12H)-one]
- IC50 (BaF3 EML4-ALK): 20.6 nM
- IC50 (KG-1 cell (OP2-FGFR1)): 234 nM
- IC50 (KM12 (TPM3-TRKA)): 0.2 nM

SMILES: C[C@H]1CNC(=O)c2cnn3cc4c(nc23)N(CCCO4)Cc2cc(F)ccc2O1 [Compound 17, (13S)-9-fluoro-13-methyl-4,5,14,15-tetrahydro-3H,7H-19,1-(metheno)[1,4]oxazepino-[3,4-i]pyrazolo[4,3-f][1,4,8,10]-benzoxatriazacyclotridecin-16(13H)-one]
- IC50 (BaF3 EML4-ALK): 2640 nM
- IC50 (KG-1 cell (OP2-FGFR1)): 5000 nM
- IC50 (KM12 (TPM3-TRKA)): < 0.2 nM

SMILES: C[C@@H]1COc2cn3ncc4c3nc2N1Cc1cc(F)cnc1OCCC1(CCC1)NC4=O [Compound 96, (16′R)-12′-fluoro-16′-methyl-4′H,5′H,7′H,8′H,14′H,16′H,17′H-spiro[cyclobutane-1,6′-[9,18]-dioxa[1,2,5,10,15,20]hexaaza-[1,19](metheno)[1,4]oxazino-[4,3-e]pyrazolo[3,4-h]pyrido[2,3-b][1,5,7,11]oxatriazacyclotetra-decin]-4′-one]
- IC50 (BaF3 EML4-ALK): 349 nM
- IC50 (KG-1 cell (OP2-FGFR1)): 500 nM
- IC50 (KM12 (TPM3-TRKA)): < 0.2 nM

SMILES: CO[C@@H]1COc2cn3ncc4c3nc2N(Cc2cc(F)cnc2O[C@@H](C)CNC4=O)C1 [Compound 91, (4S,13S)-9-fluoro-4-methoxy-13-methyl-4,5,14,15-tetrahydro-3H,7H-19,1-(metheno)[1,4]oxazepino[3,4-i]pyrazolo[4,3-f]pyrido[3,2-1][1,4,8,10]oxatriazacyclotridecin-16(13H)-one]
- IC50 (BaF3 EML4-ALK): 234 nM
- IC50 (KG-1 cell (OP2-FGFR1)): 990 nM
- IC50 (KM12 (TPM3-TRKA)): 64.2 nM

SMILES: C[C@@H]1COc2cn3ncc4c3nc2N1Cc1cc(F)cnc1OCC(C)(C)CNC4=O [Compound 55, (16R)-12-fluoro-7,7,16-trimethyl-5,6.7,8,16,17-hexahydro-4H,14H-1,19-(metheno)[1,4]oxazino[4,3-e]pyrazolo[3,4-h]pyrido[2,3-b] [1,5,7,11]oxatriazacyclotetradecin-4-one]
- IC50 (BaF3 EML4-ALK): 14.8 nM
- IC50 (KG-1 cell (OP2-FGFR1)): 4.2 nM
- IC50 (KM12 (TPM3-TRKA)): < 0.2 nM

SMILES: C[C@@H]1CCOc2cn3ncc4c3nc2N1Cc1cc(F)cnc1O[C@@H](C)CNC4=O [Compound 21, (5R,13S)-9-fluoro-5,13-dimethyl-4,5,14,15-tetrahydro-3H,7H-19,1-(metheno)[1,4]oxazepino[3,4-i]pyrazolo[4,3-f]pyrido[3,2-l][1,4,8,10]oxatriazacyclotridecin-16(13H)-one]
- IC50 (BaF3 EML4-ALK): 3000 nM
- IC50 (KG-1 cell (OP2-FGFR1)): 1820 nM
- IC50 (KM12 (TPM3-TRKA)): 0.6 nM

SMILES: C[C@H]1CNC(=O)c2cnn3cc4c(nc23)N(Cc2cc(F)ccc2O1)[C@@H](C)CO4 [Compound 4, (4S,12S)-8-fluoro-4,12-dimethyl-3,4,13,14-tetrahydro-6H-18,1-(metheno)[1,4]oxazino[3,4-i]pyrazolo[4,3-f][1,4,8,10]benzoxatriazacyclotridecin-15(12H)-one]
- IC50 (BaF3 EML4-ALK): > 10000 nM
- IC50 (KG-1 cell (OP2-FGFR1)): > 10000 nM
- IC50 (KM12 (TPM3-TRKA)): 0.2 nM

SMILES: C[C@@H]1COc2cn3ncc4c3nc2N1Cc1cc(F)cnc1O[C@@H](C)CNC4=O [Compound 8, (4R,12S)-8-fluoro-4,12-dimethyl-3,4,13,14-tetrahydro-6H-18,1-(metheno)[1,4]oxazino[3,4-i]pyrazolo[4,3-f]pyrido[3,2-l][1,4,8,10]oxatriazacyclotridecin-15(12H)-one]
- IC50 (BaF3 EML4-ALK): 101 nM
- IC50 (KG-1 cell (OP2-FGFR1)): 77.5 nM
- IC50 (KM12 (TPM3-TRKA)): 0.2 nM

SMILES: C[C@@H]1COc2cn3ncc4c3nc2N(Cc2cc(F)ccc2OC[C@@H](C)NC4=O)C1 [Compound 31, (4S,14R)-9-fluoro-4,14-dimethyl-4,5,14,15-tetrahydro-3H,7H-19,1-(metheno)[1,4]oxazepino[3,4-i]-pyrazolo[4,3-f][1,4,8,10]benzo-xatriazacyclotridecin-16(13H)-one]
- IC50 (BaF3 EML4-ALK): 1330 nM
- IC50 (KG-1 cell (OP2-FGFR1)): 779 nM
- IC50 (KM12 (TPM3-TRKA)): < 0.2 nM

SMILES: C[C@@H]1COc2cn3ncc4c3nc2N1Cc1cc(F)cnc1OCCCNC4=O [Compound 33, (16R)-12-fluoro-16-methyl-5,6,7,8,16,17-hexahydro-4H,14H-1,19-(metheno)[1,4]oxazino[4,3-e]pyrazolo[3,4-h]pyrido[2,3-b] [1,5,7,11]oxatriazacyclotetradecin-4-one]
- IC50 (BaF3 EML4-ALK): 58.4 nM
- IC50 (KG-1 cell (OP2-FGFR1)): 37.1 nM
- IC50 (KM12 (TPM3-TRKA)): < 0.2 nM

SMILES: C[C@@H]1COc2ncc(F)cc2CN2c3nc4c(cnn4cc3OCC[C@H]2C)C(=O)N1 [Compound 22, (5R,14R)-9-fluoro-5,14-dimethyl-4,5,14,15-tetrahydro-3H,7H-19,1-(metheno)[1,4]oxazepino[3,4-i]-pyrazolo[4,3-f]pyrido[3,2-l] [1,4,8,10]oxatriazacyclotridecin-16(13H)-one]
- IC50 (BaF3 EML4-ALK): 731 nM
- IC50 (KG-1 cell (OP2-FGFR1)): 784 nM
- IC50 (KM12 (TPM3-TRKA)): < 0.2 nM

SMILES: C[C@@H]1COc2ncc(F)cc2[C@H](C)N2c3nc4c(cnn4cc3OC[C@H]2C)C(=O)N1 [Compound 84, (4R,6S,13R)-8-fluoro-4,6,13-trimethyl-3,4,13,14-tetrahydro-6H-18,1-(metheno)[1,4]oxazino[3,4-i]pyrazolo[4,3-f]pyrido[3,2-l][1,4,8,10]oxatriazacyclotridecin-15(12H)-one]
- IC50 (BaF3 EML4-ALK): 366 nM
- IC50 (KG-1 cell (OP2-FGFR1)): 130 nM
- IC50 (KM12 (TPM3-TRKA)): < 0.2 nM

SMILES: C[C@@H]1COc2cn3ncc4c3nc2N1Cc1cc(F)cnc1OC[C@H](C)NC4=O [Compound 51, (4R,13S)-8-fluoro-4,13-dimethyl-3,4,13,14-tetrahydro-6H-18,1-(metheno)[1,4]oxazino[3,4-i]-pyrazolo[4,3-f]pyrido[3,2-l] [1,4,8,10]oxatriazacyclotridecin-15(12H)-one]
- IC50 (BaF3 EML4-ALK): 233 nM
- IC50 (KG-1 cell (OP2-FGFR1)): 101 nM
- IC50 (KM12 (TPM3-TRKA)): < 0.2 nM
